Test results taken from ChEMBL document CHEMBL5058645, “Data for DCP probe JNJ-6204” (2022).

How the values were obtained:
[1] = biological target: Mitogen-activated protein kinase kinase kinase 2 (Homo sapiens) (UniProt Q9Y2U5); assay: MEKK2(h) Kinase panel; settings: Compound concentration 1.0 uM, tested as the 2H-labelled form
[2] = biological target: Protein-tyrosine kinase 6 (Homo sapiens) (UniProt Q13882); assay: BRK(h) Kinase panel; settings: Compound concentration 1.0 uM, tested as the 2H-labelled form
[3] = biological target: TRAF2 and NCK-interacting protein kinase (Homo sapiens, UniProt Q9UKE5); assay: TNIK(h) Kinase panel; settings: Compound concentration 1.0 uM, tested as the 2H-labelled form
[4] = biological target: Mitogen-activated protein kinase kinase kinase 7 (Homo sapiens) (UniProt O43318); assay: TAK1(h) Kinase panel; settings: Compound concentration 1.0 uM, tested as the 2H-labelled form
[5] = biological target: Calcium/calmodulin-dependent protein kinase type II subunit delta (Homo sapiens) (UniProt Q13557); assay: CaMKIIdelta(h) Kinase panel; settings: Compound concentration 1.0 uM, tested as the 2H-labelled form
[6] = biological target: 5-hydroxytryptamine receptor 1A (Homo sapiens) (UniProt P08908); settings: Compound concentration 10.0 uM, tested as the 2H-labelled form
[7] = biological target: Serine/threonine-protein kinase 25 (Homo sapiens) (UniProt O00506); assay: STK25(h) Kinase panel; settings: Compound concentration 1.0 uM, tested as the 2H-labelled form
[8] = biological target: Serine/threonine-protein kinase PAK 4 (Homo sapiens) (UniProt O96013); assay: PAK4(h) Kinase panel; settings: Compound concentration 1.0 uM, tested as the 2H-labelled form
[9] = biological target: Sigma intracellular receptor 2 (Homo sapiens) (UniProt Q5BJF2); settings: Compound concentration 10.0 uM, tested as the 2H-labelled form
[10] = biological target: Tau-tubulin kinase 2 (Homo sapiens) (UniProt Q6IQ55); assay: TTBK2(h) Kinase panel; settings: Compound concentration 1.0 uM, tested as the 2H-labelled form
[11] = biological target: Calcium/calmodulin-dependent protein kinase type II subunit beta (Homo sapiens) (UniProt Q13554); assay: CaMKIIbeta(h) Kinase panel; settings: Compound concentration 1.0 uM, tested as the 2H-labelled form
[12] = biological target: Serine/threonine-protein kinase WNK3 (Homo sapiens) (UniProt Q9BYP7); assay: WNK3(h) Kinase panel; settings: Compound concentration 1.0 uM, tested as the 2H-labelled form
[13] = biological target: Misshapen-like kinase 1 (Homo sapiens) (UniProt Q8N4C8); assay: MINK(h) Kinase panel; settings: Compound concentration 1.0 uM, tested as the 2H-labelled form
[14] = biological target: Serine/threonine-protein kinase pim-3 (Homo sapiens) (UniProt Q86V86); assay: Pim-3(h) Kinase panel; settings: Compound concentration 1.0 uM, tested as the 2H-labelled form
[15] = biological target: Eukaryotic translation initiation factor 2-alpha kinase 3 (Homo sapiens) (UniProt Q9NZJ5); assay: PEK(h) Kinase panel; settings: Compound concentration 1.0 uM, tested as the 2H-labelled form
[16] = biological target: Serine/threonine-protein kinase 38-like (Homo sapiens, UniProt Q9Y2H1); assay: NDR2(h) Kinase panel; settings: Compound concentration 1.0 uM, tested as the 2H-labelled form
[17] = biological target: [Pyruvate dehydrogenase (acetyl-transferring)] kinase isozyme 4, mitochondrial (Homo sapiens) (UniProt Q16654); assay: PDHK4(h) Kinase panel; settings: Compound concentration 1.0 uM, tested as the 2H-labelled form
[18] = biological target: Casein kinase II subunit alpha' (Homo sapiens) (UniProt P19784); assay: CK2alpha2(h) Kinase panel; settings: Compound concentration 1.0 uM, tested as the 2H-labelled form
[19] = biological target: Alpha-1B adrenergic receptor (Homo sapiens) (UniProt P35368); settings: Compound concentration 10.0 uM, tested as the 2H-labelled form
[20] = biological target: Inhibitor of nuclear factor kappa-B kinase subunit alpha (Homo sapiens) (UniProt O15111); assay: IKKalpha(h) Kinase panel; settings: Compound concentration 1.0 uM, tested as the 2H-labelled form
[21] = biological target: Serine/threonine-protein kinase D2 (Homo sapiens) (UniProt Q9BZL6); assay: PKD2(h) Kinase panel; settings: Compound concentration 1.0 uM, tested as the 2H-labelled form
[22] = biological target: Serine/threonine-protein kinase Nek4 (Homo sapiens) (UniProt P51957); assay: NEK4(h) Kinase panel; settings: Compound concentration 1.0 uM, tested as the 2H-labelled form
[23] = biological target: Serine/threonine-protein kinase haspin (Homo sapiens) (UniProt Q8TF76); assay: Haspin(h) Kinase panel; settings: Compound concentration 1.0 uM, tested as the 2H-labelled form
[24] = biological target: Death-associated protein kinase 3 (Homo sapiens) (UniProt O43293); assay: ZIPK(h) Kinase panel; settings: Compound concentration 1.0 uM, tested as the 2H-labelled form
[25] = biological target: Casein kinase I isoform gamma-1 (Homo sapiens) (UniProt Q9HCP0); assay: CK1gamma1(h) Kinase panel; settings: Compound concentration 1.0 uM, tested as the 2H-labelled form
[26] = biological target: Serine/threonine-protein kinase TBK1 (Homo sapiens) (UniProt Q9UHD2); assay: TBK1(h) Kinase panel; settings: Compound concentration 1.0 uM, tested as the 2H-labelled form
[27] = biological target: BDNF/NT-3 growth factors receptor (Homo sapiens) (UniProt Q16620); assay: TrkB(h) Kinase panel; settings: Compound concentration 1.0 uM, tested as the 2H-labelled form
[28] = biological target: Insulin receptor-related protein (Homo sapiens) (UniProt P14616); assay: IRR(h) Kinase panel; settings: Compound concentration 1.0 uM, tested as the 2H-labelled form
[29] = biological target: Serine/threonine-protein kinase 4 (Homo sapiens) (UniProt Q13043); assay: MST1(h) Kinase panel; settings: Compound concentration 1.0 uM, tested as the 2H-labelled form
[30] = biological target: Tyrosine-protein kinase Fyn (Homo sapiens) (UniProt P06241); assay: Fyn(h) Kinase panel; settings: Compound concentration 1.0 uM, tested as the 2H-labelled form
[31] = biological target: Receptor tyrosine-protein kinase erbB-2 (Homo sapiens) (UniProt P04626); assay: ErbB2(h) Kinase panel; settings: Compound concentration 1.0 uM, tested as the 2H-labelled form
[32] = biological target: Sodium-dependent serotonin transporter (Homo sapiens) (UniProt P31645); settings: Compound concentration 10.0 uM, tested as the 2H-labelled form
[33] = biological target: 5-hydroxytryptamine receptor 2B (Homo sapiens) (UniProt P41595); settings: Compound concentration 10.0 uM, tested as the 2H-labelled form
[34] = biological target: Calcium/calmodulin-dependent protein kinase type II subunit alpha (Homo sapiens) (UniProt Q9UQM7); assay: CaMKIIalpha(h) Kinase panel; settings: Compound concentration 1.0 uM, tested as the 2H-labelled form
[35] = biological target: Dual specificity protein kinase CLK1 (Homo sapiens) (UniProt P49759); assay: CLK1(h) Kinase panel; settings: Compound concentration 1.0 uM, tested as the 2H-labelled form
[36] = biological target: Vascular endothelial growth factor receptor 2 (Homo sapiens) (UniProt P35968); assay: KDR(h) Kinase panel; settings: Compound concentration 1.0 uM, tested as the 2H-labelled form
[37] = biological target: Dual specificity mitogen-activated protein kinase kinase 3 (Homo sapiens) (UniProt P46734); assay: MKK3(h) Kinase panel; settings: Compound concentration 1.0 uM, tested as the 2H-labelled form
[38] = biological target: Alpha-1A adrenergic receptor (Homo sapiens) (UniProt P35348); settings: Compound concentration 10.0 uM, tested as the 2H-labelled form
[39] = biological target: MAP kinase-activated protein kinase 2 (Homo sapiens) (UniProt P49137); assay: MAPKAP-K2(h) Kinase panel; settings: Compound concentration 1.0 uM, tested as the 2H-labelled form
[40] = biological target: Mitogen-activated protein kinase 9 (Homo sapiens) (UniProt P45984); assay: JNK2alpha2(h) Kinase panel; settings: Compound concentration 1.0 uM, tested as the 2H-labelled form
[41] = biological target: [Pyruvate dehydrogenase (acetyl-transferring)] kinase isozyme 2, mitochondrial (Homo sapiens) (UniProt Q15119); assay: PDHK2(h) Kinase panel; settings: Compound concentration 1.0 uM, tested as the 2H-labelled form
[42] = biological target: Non-receptor tyrosine-protein kinase TYK2 (Homo sapiens) (UniProt P29597); assay: TYK2(h) Kinase panel; settings: Compound concentration 1.0 uM, tested as the 2H-labelled form
[43] = biological target: Serine/threonine-protein kinase 24 (Homo sapiens) (UniProt Q9Y6E0); assay: MST3(h) Kinase panel; settings: Compound concentration 1.0 uM, tested as the 2H-labelled form
[44] = biological target: Casein kinase I isoform alpha (Homo sapiens, UniProt P48729); assay: CK1alpha(h) Kinase panel; settings: Compound concentration 1.0 uM, tested as the 2H-labelled form
[45] = biological target: 5'-AMP-activated protein kinase catalytic subunit alpha-1 (Homo sapiens) (UniProt Q13131); assay: AMPKalpha1(h) Kinase panel; settings: Compound concentration 1.0 uM, tested as the 2H-labelled form
[46] = biological target: Histamine H3 receptor (Homo sapiens) (UniProt Q9Y5N1); settings: Compound concentration 10.0 uM, tested as the 2H-labelled form
[47] = biological target: Serine/threonine-protein kinase ULK3 (Homo sapiens) (UniProt Q6PHR2); assay: ULK3(h) Kinase panel; settings: Compound concentration 1.0 uM, tested as the 2H-labelled form
[48] = biological target: Discoidin domain-containing receptor 2 (Homo sapiens) (UniProt Q16832); assay: DDR2(h) Kinase panel; settings: Compound concentration 1.0 uM, tested as the 2H-labelled form
[49] = biological target: Histamine H1 receptor (Homo sapiens) (UniProt P35367); settings: Compound concentration 10.0 uM, tested as the 2H-labelled form
[50] = biological target: Serine/threonine-protein kinase Nek7 (Homo sapiens) (UniProt Q8TDX7); assay: NEK7(h) Kinase panel; settings: Compound concentration 1.0 uM, tested as the 2H-labelled form
[51] = biological target: Histamine H2 receptor (Homo sapiens) (UniProt P25021); settings: Compound concentration 10.0 uM, tested as the 2H-labelled form

Measured: inhibition

Chain of Serine/threonine-protein kinase ULK3 (Homo sapiens) (Q6PHR2 whole entry, the tested form may be a part): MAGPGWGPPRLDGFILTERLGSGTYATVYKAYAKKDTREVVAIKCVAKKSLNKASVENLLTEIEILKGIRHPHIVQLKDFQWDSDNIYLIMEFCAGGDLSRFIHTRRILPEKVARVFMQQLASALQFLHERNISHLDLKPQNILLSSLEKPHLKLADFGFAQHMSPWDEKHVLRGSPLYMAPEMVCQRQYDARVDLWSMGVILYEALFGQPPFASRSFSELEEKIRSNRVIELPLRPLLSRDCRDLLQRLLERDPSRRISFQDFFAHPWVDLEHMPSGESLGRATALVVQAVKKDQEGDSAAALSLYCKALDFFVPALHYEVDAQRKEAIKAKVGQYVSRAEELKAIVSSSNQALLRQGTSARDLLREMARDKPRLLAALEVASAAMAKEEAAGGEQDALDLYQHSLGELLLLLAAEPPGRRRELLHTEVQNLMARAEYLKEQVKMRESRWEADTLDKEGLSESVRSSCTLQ
Chain of Inhibitor of nuclear factor kappa-B kinase subunit alpha (Homo sapiens) (O15111 whole entry): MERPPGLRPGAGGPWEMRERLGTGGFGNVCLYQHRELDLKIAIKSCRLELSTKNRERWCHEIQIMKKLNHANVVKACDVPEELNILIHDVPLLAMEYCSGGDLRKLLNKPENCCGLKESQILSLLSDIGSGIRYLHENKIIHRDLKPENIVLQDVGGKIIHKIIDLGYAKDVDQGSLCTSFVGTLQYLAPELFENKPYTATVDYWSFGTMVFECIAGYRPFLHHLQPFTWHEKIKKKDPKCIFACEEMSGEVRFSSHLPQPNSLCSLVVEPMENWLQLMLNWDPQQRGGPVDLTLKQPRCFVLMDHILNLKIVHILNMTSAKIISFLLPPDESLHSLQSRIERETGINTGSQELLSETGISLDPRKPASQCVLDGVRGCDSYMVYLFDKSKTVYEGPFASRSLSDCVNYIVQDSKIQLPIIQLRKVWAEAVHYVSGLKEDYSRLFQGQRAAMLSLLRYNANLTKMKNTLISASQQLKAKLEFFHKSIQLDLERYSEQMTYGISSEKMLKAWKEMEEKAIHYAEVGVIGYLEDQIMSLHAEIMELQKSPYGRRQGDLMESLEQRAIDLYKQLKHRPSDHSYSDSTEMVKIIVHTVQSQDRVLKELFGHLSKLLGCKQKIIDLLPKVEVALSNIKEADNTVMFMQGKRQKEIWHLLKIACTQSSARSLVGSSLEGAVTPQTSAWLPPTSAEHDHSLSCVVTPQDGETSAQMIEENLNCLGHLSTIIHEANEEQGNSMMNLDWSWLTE
Chain of Alpha-1B adrenergic receptor (Homo sapiens) (P35368 whole entry): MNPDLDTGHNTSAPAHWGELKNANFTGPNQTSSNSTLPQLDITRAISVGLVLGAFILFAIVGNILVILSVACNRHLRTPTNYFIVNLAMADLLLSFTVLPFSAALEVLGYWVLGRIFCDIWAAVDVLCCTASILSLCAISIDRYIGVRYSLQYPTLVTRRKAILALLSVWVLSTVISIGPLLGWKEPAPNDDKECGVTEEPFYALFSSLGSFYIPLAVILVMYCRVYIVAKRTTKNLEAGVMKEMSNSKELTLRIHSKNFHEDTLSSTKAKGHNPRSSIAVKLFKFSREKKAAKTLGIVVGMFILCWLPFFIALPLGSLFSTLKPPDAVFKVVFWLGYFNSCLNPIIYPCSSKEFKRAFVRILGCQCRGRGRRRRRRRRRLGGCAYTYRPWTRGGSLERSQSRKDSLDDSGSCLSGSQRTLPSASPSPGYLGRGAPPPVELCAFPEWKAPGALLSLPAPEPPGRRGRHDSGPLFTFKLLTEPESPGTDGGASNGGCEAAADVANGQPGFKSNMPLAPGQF
Chain of MAP kinase-activated protein kinase 2 (Homo sapiens) (P49137 whole entry, looked up): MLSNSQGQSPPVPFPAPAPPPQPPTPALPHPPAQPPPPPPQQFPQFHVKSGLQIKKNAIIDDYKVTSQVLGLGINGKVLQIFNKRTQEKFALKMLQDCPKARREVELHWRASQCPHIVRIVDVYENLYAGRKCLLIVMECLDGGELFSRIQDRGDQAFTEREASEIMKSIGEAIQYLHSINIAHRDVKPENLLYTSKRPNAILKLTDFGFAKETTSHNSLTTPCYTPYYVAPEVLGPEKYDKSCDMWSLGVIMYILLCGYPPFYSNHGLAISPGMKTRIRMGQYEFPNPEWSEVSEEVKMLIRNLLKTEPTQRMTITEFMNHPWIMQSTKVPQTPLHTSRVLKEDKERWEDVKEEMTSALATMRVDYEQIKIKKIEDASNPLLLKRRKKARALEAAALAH
Chain of 5'-AMP-activated protein kinase catalytic subunit alpha-1 (Homo sapiens) (Q13131 whole entry, looked up): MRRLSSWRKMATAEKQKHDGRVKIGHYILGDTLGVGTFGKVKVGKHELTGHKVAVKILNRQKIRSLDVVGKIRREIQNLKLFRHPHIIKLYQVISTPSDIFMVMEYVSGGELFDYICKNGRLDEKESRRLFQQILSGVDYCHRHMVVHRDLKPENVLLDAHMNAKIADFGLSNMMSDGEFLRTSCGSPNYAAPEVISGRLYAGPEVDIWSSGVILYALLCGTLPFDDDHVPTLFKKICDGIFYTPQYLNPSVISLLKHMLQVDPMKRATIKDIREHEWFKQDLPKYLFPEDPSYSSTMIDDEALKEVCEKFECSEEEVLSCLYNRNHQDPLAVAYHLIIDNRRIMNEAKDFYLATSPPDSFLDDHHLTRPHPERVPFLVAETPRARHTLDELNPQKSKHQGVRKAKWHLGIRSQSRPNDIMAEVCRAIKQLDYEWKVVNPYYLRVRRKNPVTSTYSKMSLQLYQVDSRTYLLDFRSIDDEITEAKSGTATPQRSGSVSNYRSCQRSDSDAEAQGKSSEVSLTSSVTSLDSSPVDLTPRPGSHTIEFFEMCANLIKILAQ
Chain of Sodium-dependent serotonin transporter (Homo sapiens) (P31645 whole entry, looked up): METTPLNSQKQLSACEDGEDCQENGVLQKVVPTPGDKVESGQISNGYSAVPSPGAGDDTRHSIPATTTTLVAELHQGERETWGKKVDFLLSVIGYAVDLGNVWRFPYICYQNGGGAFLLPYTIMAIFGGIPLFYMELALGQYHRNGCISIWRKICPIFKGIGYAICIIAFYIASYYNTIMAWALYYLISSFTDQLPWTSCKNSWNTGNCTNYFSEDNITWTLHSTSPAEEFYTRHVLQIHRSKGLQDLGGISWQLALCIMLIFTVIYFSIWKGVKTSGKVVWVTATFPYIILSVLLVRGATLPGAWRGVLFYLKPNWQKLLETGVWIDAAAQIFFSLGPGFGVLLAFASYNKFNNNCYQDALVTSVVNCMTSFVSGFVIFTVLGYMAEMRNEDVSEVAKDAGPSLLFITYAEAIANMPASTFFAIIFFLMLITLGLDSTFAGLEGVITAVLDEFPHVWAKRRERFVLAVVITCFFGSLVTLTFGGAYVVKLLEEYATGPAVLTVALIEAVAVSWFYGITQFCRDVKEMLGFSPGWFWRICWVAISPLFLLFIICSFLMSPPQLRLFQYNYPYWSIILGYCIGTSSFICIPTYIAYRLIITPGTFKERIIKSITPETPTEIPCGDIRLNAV
Chain of 5-hydroxytryptamine receptor 2B (Homo sapiens) (P41595 whole entry): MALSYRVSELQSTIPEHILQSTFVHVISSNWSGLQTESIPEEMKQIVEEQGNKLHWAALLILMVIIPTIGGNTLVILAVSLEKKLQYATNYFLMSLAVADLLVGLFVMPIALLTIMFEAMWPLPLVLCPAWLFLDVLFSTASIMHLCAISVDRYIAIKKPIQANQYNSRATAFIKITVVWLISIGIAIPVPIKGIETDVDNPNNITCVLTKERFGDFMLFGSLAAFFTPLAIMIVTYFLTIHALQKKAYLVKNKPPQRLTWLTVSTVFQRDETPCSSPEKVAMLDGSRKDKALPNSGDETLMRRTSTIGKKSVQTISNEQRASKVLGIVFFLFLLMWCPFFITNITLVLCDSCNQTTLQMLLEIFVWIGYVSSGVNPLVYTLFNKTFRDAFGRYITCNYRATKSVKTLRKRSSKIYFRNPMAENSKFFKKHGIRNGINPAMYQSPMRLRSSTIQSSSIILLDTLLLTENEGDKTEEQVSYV
Chain of Serine/threonine-protein kinase Nek4 (Homo sapiens) (P51957 whole entry, looked up): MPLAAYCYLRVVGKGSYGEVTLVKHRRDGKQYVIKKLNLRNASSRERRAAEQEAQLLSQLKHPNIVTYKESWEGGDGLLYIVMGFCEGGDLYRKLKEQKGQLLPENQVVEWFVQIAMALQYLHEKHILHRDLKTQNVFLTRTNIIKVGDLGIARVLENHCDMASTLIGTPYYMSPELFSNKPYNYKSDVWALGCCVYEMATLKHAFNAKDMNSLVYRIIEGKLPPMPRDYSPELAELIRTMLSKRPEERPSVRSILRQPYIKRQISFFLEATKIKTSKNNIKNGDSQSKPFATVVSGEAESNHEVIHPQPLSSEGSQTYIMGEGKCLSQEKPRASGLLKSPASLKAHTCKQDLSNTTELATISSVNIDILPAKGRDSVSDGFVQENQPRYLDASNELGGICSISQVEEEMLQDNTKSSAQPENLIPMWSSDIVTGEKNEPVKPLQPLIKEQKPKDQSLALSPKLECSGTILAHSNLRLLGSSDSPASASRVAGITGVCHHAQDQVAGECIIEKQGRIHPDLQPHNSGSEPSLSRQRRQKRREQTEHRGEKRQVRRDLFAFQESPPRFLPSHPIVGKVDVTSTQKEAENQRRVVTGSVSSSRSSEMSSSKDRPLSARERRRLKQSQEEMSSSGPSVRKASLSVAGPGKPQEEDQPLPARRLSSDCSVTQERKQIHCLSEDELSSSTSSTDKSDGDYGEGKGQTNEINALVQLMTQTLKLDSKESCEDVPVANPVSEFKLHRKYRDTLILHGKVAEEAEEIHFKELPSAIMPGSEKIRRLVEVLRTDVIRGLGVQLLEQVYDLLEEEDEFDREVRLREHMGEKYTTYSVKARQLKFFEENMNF

CC1(C)Cn2nc(-c3ccc(F)cn3)c(-c3ccnc4[nH]ncc34)c2CO1
inactive: [1] 5% | [2] -1% | [3] 50% | [4] -5% | [5] -6% | [6] 1.3% | [7] 21% | [8] -5% | [9] -3% | [10] 0% | [11] 18% | [12] -2% | [13] 2% | [14] 4% | [15] 11% | [16] 30% | [17] -7% | [18] 4% | [19] 1.82% | [20] 8% | [21] 5% | [22] 7% | [23] 9% | [24] 13% | [25] 4% | [26] 24% | [27] -5% | [28] -4% | [29] -4% | [30] 20% | [31] 9% | [32] 2.66% | [33] 6.01% | [34] 0% | [35] 6% | [36] 2% | [37] 7% | [38] 0.58% | [39] -1% | [40] -2% | [41] 26% | [42] -5% | [43] -2% | [44] 73% | [45] 0% | [46] -1.16% | [47] 12% | [48] 8% | [49] -9.94% | [50] 5% | [51] -1.3%
